US20230256110A1, “COMBINATION OF ANTIBODY-DRUG CONJUGATE AND ATM INHIBITOR” (AstraZeneca UK Limited, priority 2020, published 2023)
Entries after “also recorded” stand apart in the source; their conditions may differ. Structures can show the parent of a compound that is named as a salt.

Columns and labels:
[1] = system: KAP1 pSer824, γH2AX; experiment: Immunofluorescence biomarkers of ATM activation and DNA damage in KPL4 cells; format: cell-based; conditions: high-HER2 KPL4
Description: Cells grown in their respective conditions were plated in 96-well plates at optimal density to allow linear proliferation for the duration of the assay (4 to 8 days; duration of treatment is dependent on the growth rate of each cell line). Immediately after plating, the cells were dosed with the indicated compounds for a total volume of 200 μL/well and placed in the incubator. Combinations were conducted as a 6×8 concentration response matrix for each combination. At the endpoint, the cells were fixed in 2% PFA for 20 minutes at room temperature. In order to obtain the number of cells at the start of treatment, one additional plate was used for each experiment and fixed after cells attached. The cells were then permeabilised in 0.5% Triton-X100 in PBS for 10 minutes. After a PBS wash, the cells were blocked in 5% FBS in PBS 1 h at RT and incubated with primary antibodies in 5% FBS+0.05% triton overnight at 4° C. After 3 washes in PBS cells were incubated with secondary antibodies in 5% FBS+0.05% triton with Hoechst33258 for 1 h at room temperature. After 3 washes in PBS, the cells were scanned with a Cellinsight instrument with a 10×objective and 9 fields/well. Images were analysed using Columbus for cell count based on nuclear Hoechst staining and nuclear intensity of other biomarkers investigated. […]

[2] = system: ATM signaling; experiment: Inhibition of ATM signaling, antibody blots of whole-cell extracts; format: cell-based
Description: Gastric cancer NCI-N87 and breast carcinoma KPL4 cell lines were cultured in RPMI 1640 supplemented with 10% FCS in a humidified incubator at 37° C. with 5% CO2. Cells were plated in 6-well plates at optimal density to allow linear proliferation for the duration of the assay. […] 7 h, 24 h or 48 h after dosing, whole-cell extracts were obtained by lysis in 50 mM Tris-HCl pH 7.5, 2% SDS containing protease and phosphatase inhibitors. Lysates were boiled for 5 minutes at 95° C. Protein concentration was measured using a Nanodrop at […] and 50 μg of lysate were loaded in 4-12% Bis Tris gels. Proteins were transferred using iblot2. Primary antibodies (see Table 7) were incubated overnight at 4° C. in 3% milk TBS-tween 0.05% and HRP-conjugated secondary antibodies for 1 h at room temperature. Blots were imaged using a G-box.

[3] = system: SK-OV-3 cell line; experiment: Growth inhibition by total cell (nuclear) count, 96-well imaging; format: cell-based; conditions: Homo sapiens; monotherapy; SK-OV-3, ovarian, HER2 Moderate; 4 to 8 days
Description: (§1) Cells grown in their respective conditions were plated in 96-well plates at optimal density to allow linear proliferation for the duration of the assay (4 to 8 days; duration of treatment is dependent on the growth rate of each cell line). Immediately after plating, the cells were dosed with the indicated compounds for a total volume of 200 μL/well and placed in the incubator. Combinations were conducted as a 6×8 concentration response matrix for each combination. At the endpoint, the cells were fixed in 2% PFA for 20 minutes at room temperature. In order to obtain the number of cells at the start of treatment, one additional plate was used for each experiment and fixed after cells attached. The cells were then permeabilised in 0.5% Triton-X100 in PBS for 10 minutes. After a PBS wash, the cells were blocked in 5% FBS in PBS 1 h at RT and incubated with primary antibodies in 5% FBS+0.05% triton overnight at 4° C. After 3 washes in PBS cells were incubated with secondary antibodies in 5% FBS+0.05% triton with Hoechst33258 for 1 h at room temperature. After 3 washes in PBS, the cells were scanned with a Cellinsight instrument with a 10×objective and 9 fields/well. Images were analysed using Columbus for cell count based on nuclear Hoechst staining and nuclear intensity of other biomarkers investigated. The total cell count/well was used to calculate the relative growth in each well compared to solvent control. […] The mean/well of the sum of the nuclear intensity of the IF biomarkers was also expressed relative to solvent control.

[4] = system: JIMT-1 cell line; experiment: as above; format: cell-based; conditions: Homo sapiens; monotherapy; JIMT-1, breast, HER2 Expressed; 4 to 8 days
Description: as §1

[5] = system: DU145 cell line; experiment: as above; format: cell-based; conditions: Homo sapiens, DU-145; monotherapy; DU145, prostate, HER2 Low; 4 to 8 days
Description: as §1

[6] = system: NCI-N87 cell line; experiment: as above; format: cell-based; conditions: Homo sapiens; monotherapy; NCI-N87, gastric, HER2 High; 4 to 8 days
Description: as §1

[7] = system: KPL4 cell line; experiment: as above; format: cell-based; conditions: monotherapy; KPL4, breast, HER2 High; 4 to 8 days
Description: as §1

[8] = system: DU145-SLFN11 KO (CRISPR-Cas9 gene knockout of SLFN11); experiment: as above; format: cell-based; conditions: monotherapy, prostate, HER2 Low, 4 to 8 days
Description: as §1

[9] = system: MDA-MB-468 cell line; experiment: as above; format: cell-based; conditions: Homo sapiens; monotherapy; MDA-MB-468, breast, HER2 Low; 4 to 8 days
Description: as §1

[10] = system: NCI-N87 tumours implanted subcutaneously; experiment: NCI-N87 xenograft antitumor test in vivo; parameters: species or system Female Nude mice; conditions: AZD1390 10 mg/kg PO QD × 28; day 40 post treatment
[11] = system: T47D cell line; experiment: High-throughput combination screen, 7-day cell titer-glo cell viability assay; format: cell-based; conditions: within the selected concentration range
Source text: (§2) In addition, trastuzumab and exatecan (DNA topoisomerase I inhibitor) were also screened in parallel with AZD1390.
(§3) • Loewe Dose Additivity predicts the expected response if the two compounds act on the same molecular target by means of the same mechanism. It calculates additivity based on the assumption of zero interaction between the compounds and it is independent from the nature of the dose-response relationship. • HSA (Highest Single Agent) [Berenbaum 1989] quantifies the higher of the two single compound effects at their corresponding concentrations. The combined effect is compared with the effect of each single agent at the concentration used in the combination. Excess over the highest single agent effect indicates cooperativity. […] The predicted values are determined by the chosen model. Differences between the predicted and observed values may indicate synergy or antagonism, and are shown in the Excess Matrix. Excess Matrix values are summarized by the combination scores Excess Volume and Synergy Score.

[12] = system: NCI-N87 cell line; experiment: as above; format: cell-based; conditions: within the selected concentration range
Source text: as §2, §3

[13] = system: KPL4 cell line; experiment: as above; format: cell-based; conditions: within the selected concentration range
Source text: as §2, §3

[14] = system: MDA-MB-468 cell line; experiment: as above; format: cell-based; conditions: within the selected concentration range
Source text: as §2, §3

[15] = NCI-N87 and KPL4, AZD1390 at 100 nM combined with DS-8201 or exatecan mesylate

`CC[C@@]1(O)C(=O)OCc2c1cc1n(c2=O)Cc2c-1nc1cc(F)c(C)c3c1c2[C@@H](N)CC3` [Exatecan mesylate, (1S,9S)-1-amino-9-ethyl-5-fluoro-1,2,3,9,12,15-hexahydro-9-hydroxy-4-methyl-10H,13H-benzo[de]pyrano[3′,4′:6,7]indolizino[1,2-b]quinolin-10,13-dione, reference compound] was tested, and the “biomarkers of ATM (KAP1 pSer824) activation and DNA strand breaks (yH2AX)” value [1] was “induced in a concentration dependent manner”, the “activation of the ATM pathway (pATM-S1981, pChk2-T68, pKap1-S824)” value ([2]; Her2-high NCI-N87 and KPL4, DS-8201 at 30 μg/mL or exatecan mesylate alone) was “induced activation of the ATM pathway” and the GI50 [3] was 0.914 nM. It also gave a GI50 [4] of 0.745 nM, a GI50 [5] of 0.564 nM and a GI50 [6] of 0.503 nM. The GI50 [7] was 1.18 nM, the GI50 [8] was 0.45 nM and the GI50 [9] was 0.162 nM.
In the case of `CC(C)n1c(=O)n(C)c2cnc3cc(F)c(-c4ccc(OCCCN5CCCCC5)nc4)cc3c21` [AZD1390, 7-fluoro-1-isopropyl-3-methyl-8-[6-[3-(1-piperidyl)propoxy]-3-pyridyl]imidazo[4,5-c]quinolin-2-one], the “Best response % TGI/regression” value [10] is reported as 37%, the “DNA damage (pRPA, gH2AX)” value [2, 15] is reported as “exacerbating the DNA damage” and the “activation of pATM, pChk2, and pKAP1” value [2, 15] is reported as “inhibited the activation of pATM, pChk2, and pKAP1; also recorded: inhibits DS-8201-induced ATM signaling”. The “cell death (cCasp3)” value [2, 15] was “increased cell death”, the “Single agent activity (cell viability)” value [11] was “not active” and the “Single agent activity (cell viability)” value [12] was “not active”. The “Single agent activity (cell viability)” value [13] was “not active”, the “Single agent activity (cell viability)” value [14] was “not active” and the GI50 [3] was over 100 nM. For the same compound, the GI50 [4] was over 100 nM, the GI50 [6] was over 100 nM and the GI50 [7] was over 100 nM. For the same compound, the GI50 [9] was over 100 nM.
